Here are results for one compound from PMC7269146, “Jingzhaotoxin-X, a gating modifier of Kv4.2 and Kv4.3 potassium channels purified from the venom of the Chinese tarantula Chilobrachys jingzhao” (The Journal of Venomous Animals and Toxins Including …, 2020).

SMILES strings stand for the structures. Where a SMILES comes first, the peptide text is derived from it. Bridges are numbered along the chain shown (N, C = ends).

The assay addresses T1, Kv4.2 (Rattus norvegicus, UniProt Q63881).
T1 construct: expressed in transfected cells; host or cells: HEK293t
T1 sequence (Q63881 1-630): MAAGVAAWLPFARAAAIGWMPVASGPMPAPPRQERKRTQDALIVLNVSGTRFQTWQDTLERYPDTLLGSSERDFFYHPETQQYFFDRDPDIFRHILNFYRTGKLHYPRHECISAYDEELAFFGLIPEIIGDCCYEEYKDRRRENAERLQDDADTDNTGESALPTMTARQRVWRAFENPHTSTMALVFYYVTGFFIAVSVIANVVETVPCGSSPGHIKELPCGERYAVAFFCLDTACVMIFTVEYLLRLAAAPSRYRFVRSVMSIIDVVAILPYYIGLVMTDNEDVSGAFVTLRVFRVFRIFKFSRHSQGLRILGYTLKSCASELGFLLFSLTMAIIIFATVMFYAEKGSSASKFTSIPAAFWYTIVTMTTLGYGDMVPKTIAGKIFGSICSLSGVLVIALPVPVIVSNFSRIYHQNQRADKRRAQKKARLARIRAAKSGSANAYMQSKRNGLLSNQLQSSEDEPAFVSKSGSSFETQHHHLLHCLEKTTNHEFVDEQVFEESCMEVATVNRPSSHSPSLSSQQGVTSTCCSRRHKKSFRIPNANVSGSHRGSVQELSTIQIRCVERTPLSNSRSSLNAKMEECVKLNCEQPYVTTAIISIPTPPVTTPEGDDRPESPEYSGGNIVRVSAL
In words: paired-pulse protocol, recovery from inactivation of Kv4.2. The format is cell-based. The following applies: n = 7. An excerpt: Rat cDNA genes encoding Kv4.2 (Accession: NM_031730.2) and Kv4.3 (Accession: AB003587.1) were subcloned to vector pcDNA3.1. In addition, human cDNA genes encoding Nav1.7 (Accession: DQ857292.1) and Nav1.5 (Accession: AB158469.2) were subcloned to vectors pcDNA3.1-mod and pcDNA3.1, separately. Then, Kv4.2, Kv4.3, Nav1.5 and Nav1.7 constructs were transiently transfected into the human embryonic kidney 293t (HEK293t) cells using lipofectamine 2000 (Invitrogen, USA) in accordance with manufacturer protocols. Thereafter, HEK293 cells were inoculated within Dulbecco’s modified Eagle’s medium (DMEM) containing 10% fetal bovine serum (FBS) at 5% CO2 and 37°C. The Kv4.3 channel and the Kv4.2 counterpart were then transfected in the absence of β subunit. Subsequently, cells were incubated with a DNA-lipofectamine mixture (one reporter plasmid for green fluorescence protein and channel constructs) for 4-6 h, and were washed with the fresh medium. […]
Figure 7. […] Thereafter, those elicited peak currents in test pulses were determined and standardized based on the peak currents for conditioning pulses within the identical cell. […] ( B ) The standardized recovery data were expressed as mean ± S.E. (n = 7), plotted as a function of inter-pulse interval, and fitted to one singular exponential function.

`CC(C)C[C@@H]1NC(=O)[C@H](CCCCN)NC(=O)[C@H](Cc2ccc(O)cc2)NC(=O)[C@@H]2CSSC[C@@H]3NC(=O)[C@H](Cc4ccc(O)cc4)NC(=O)[C@H](Cc4ccccc4)NC(=O)CNC(=O)[C@H](C)NC(=O)[C@H](CSSC[C@H](NC(=O)[C@@H](N)CC(C)C)C(=O)N[C@@H](CO)C(=O)N[C@@H](CCCNC(=N)N)C(=O)N[C@@H](CCC(=O)O)C(=O)NCC(=O)N[C@@H](CCC(=O)O)C(=O)N[C@@H](Cc4ccccc4)C(=O)N2)NC(=O)[C@H](CSSC[C@@H](C(=O)N[C@@H](Cc2ccc(O)cc2)C(=O)N[C@@H](CCCNC(=N)N)C(=O)N[C@@H](CC(N)=O)C(=O)O)NC(=O)[C@H](Cc2c[nH]cn2)NC(=O)[C@H](CC(C)C)NC(=O)[C@H](C(C)C)NC(=O)[C@H](Cc2ccccc2)NC(=O)[C@H](C)NC(=O)[C@H](CCCCN)NC3=O)NC(=O)[C@H](CCCCN)NC(=O)[C@H](CCCNC(=N)N)NC1=O` [JZTX-X, Jingzhaotoxin-X] (H-LCSREGEFCYKLRKCCAGFYCKAFVLHCYRN-OH; disulfide 2-16, 9-21, 15-28; N-terminus assumed): where the note is “paired-pulse protocol”, the “effect on recovery of Kv4.2” value is “remarkably accelerated the recovery of Kv4.2 channel inhibition”. The “time constant of recovery from inactivation, Kv4.2” value (toxin concentration not given, control 195.3 ± 31.6 ms, P<0.05, single exponential) came out at 130.2 ± 25.3 ms.
